Experimental data: US6716878B1, “Antimicrobial agents” (Vernalis (Oxford) Limited, priority 1999, dated 2004)
≈ marks a conversion by molar mass, not a printed value. Where two headings read alike, the source gives them in different places.

What was measured:
E. coli strain DH5α = experiment: Minimal inhibitory concentration (MIC) against E. coli, two fold serial dilutions in 2xYT broth; format: cell-based; conditions: Escherichia coli, read-out: MIC (E. coli)
Protocol: (§1) Where MIC values are quoted for the compounds of the examples, those results were obtained by the method described in the Biological Example.
(§2) Minimal inhibitory concentrations (MIC) of inhibitors against E. coli strain DH5α (Genotype; F-φ80d/acZΔM 15Δ(lacZYA-argF)U 169 deoR recA1 endA1 hsdR17(rk^−, mk^+)phoA supE44λ^−thi-1 gyrA96 re/A1) obtained from GibcoBRL Life Technologies, or Staphylococcus capitis (American Type Culture Collection number 35661) were determined as follows. Stock solutions of each test compound were prepared by dissolution of the compound in dimethylsulfoxide at 10 mM. For the determination of the minimal inhibitory concentration, two fold serial dilutions were prepared in 2×YT broth (typtone 16 g/l, yeast extract 10 g/l, sodium chloride 5 g/l obtained from BIO 101 Inc, 1070 Joshua Way, Vista, Calif. 92083, USA) to yield 0.05 ml compound-containing medium per well. Inocula were prepared from cultures grown overnight in 2×YT broth at 37° C. Cell densities were adjusted to absorbance at 660 nm (a660)=0.1; the optical density-standardised preparations were diluted 1:1000 in 2×YT broth; and each well inoculated with 0.05 ml of the diluted bacteria. Microtiter plates were incubated at 37° C. for 18 hours in a humidified incubator. The MIC (μM) was recorded as the lowest drug concentration that inhibited visible growth.

[1] = system: Staphylococcus capitis (American Type Culture Collection number 35661); experiment: Minimal inhibitory concentration (MIC) against Staphylococcus capitis, two fold serial dilutions in 2xYT broth; format: cell-based; conditions: ATCC35661, Staphylococcus capitis ATCC 35661, 37° C., 18 hours, lowest drug concentration that inhibited visible growth, read-out: MIC (S. capitis)
Protocol: as §1, §2

[2] = E. coli strain DH5α, 2xYT broth, 37° C., 18 hours, lowest drug concentration that inhibited visible growth

Row | SMILES | MIC (E. coli strain DH5α; [2]) [µM] | MIC [1] [µM] | MIC (E. coli strain DH5α; 18 h) [µM]
1 | CCCC[C@H](CN(O)C=O)C(=O)N[C@H](C(=O)c1ccc(F)cc1)C(C)(C)C [Example 1, 2(R)-[(N-Formyl-N-hydroxyamino)-methyl]-hexanoic Acid-(1′(S)-(4-fluorobenzoyl)-2′,2′-dimethylpropyl)amide] | 12.5 (≈ 4.76 µg/mL) | 25 (≈ 9.51 µg/mL) | 
2 | CCCC[C@H](CN(O)C=O)C(=O)N[C@H](C(=O)c1ccc(OC)cc1)C(C)(C)C [Example 2] | 12.5 (≈ 4.91 µg/mL) | 6.25 (≈ 2.45 µg/mL) | 
3 | CCCC[C@H](CN(O)C=O)C(=O)N[C@H](C(=O)C1CCCCC1)C(C)C [Example 3, 2(R)-[(N-Formyl-N-hydroxyamino)-methyl]-hexanoic Acid-(1′(S)-cyclohexanecarbonyl-2′-methylpropyl)amide] | 50 (≈ 17.7 µg/mL) | 25 (≈ 8.86 µg/mL) | 
4 | CC(C)(C)[C@H](NC(=O)[C@H](CC1CCCC1)CN(O)C=O)C(=O)c1ccc(F)cc1 [Example 4, 3-Cyclopentyl-2(R)-[(N-formyl-N-hydroxyamino)-methyl]-N-[1′(S)-(4-fluorobenzoyl)-2′,2′-dimethylpropyl]propionamide] | 3.1 (≈ 1.26 µg/mL) | 3.1 (≈ 1.26 µg/mL) | 
5 | COc1ccc(C(=O)[C@@H](NC(=O)[C@H](CC2CCCC2)CN(O)C=O)C(C)(C)C)cc1 [Example 5, 3-Cyclopentyl-2(R)-[(N-formyl-N-hydroxyamino)-methyl]-N-[1′(S)-(4-methoxybenzoyl)-2′,2′-dimethylpropyl]propionamide] | 3.1 (≈ 1.3 µg/mL) | 1.6 (≈ 0.67 µg/mL) | 
6 | CCCC[C@H](CN(O)C=O)C(=O)N[C@H](C(=O)c1nccn1C)C(C)(C)C [Example 6, 2(R)-[(N-Formyl-N-hydroxyamino)-methyl]-hexanoic Acid-[2,2-dimethyl-1(S)(1-methyl-1H-imidazole-2-carbonyl)-propyl]-amide] | 25 (≈ 9.16 µg/mL) | 200 (≈ 73.3 µg/mL) | 
7 | CCCC[C@H](CN(O)C=O)C(=O)N[C@H](C(=O)c1ccccn1)C(C)(C)C [Example 7, 2(R)-[(N-Formyl-N-hydroxyamino)-methyl]-hexanoic Acid-[2,2-dimethyl-1(S)-(pyridine-2-carbonyl)-propyl]-amide] | 12.5 (≈ 4.54 µg/mL) | 50 (≈ 18.2 µg/mL) | 
8 | CCCC[C@H](CN(O)C=O)C(=O)N[C@H](C(=O)c1cc2ccccc2o1)C(C)(C)C [Example 8, 2(R)-[(N-Formyl-N-hydroxyamino)-methyl]-hexanoic Acid-(1′(S)-(benzofuran-2-carbonyl)-2′,2′-dimethylpropyl)amide] | 6.25 (≈ 2.52 µg/mL) | 1.6 (≈ 0.644 µg/mL) | 
9 | CC(C)(C)[C@H](NC(=O)[C@H](CC1CCCC1)CN(O)C=O)C(=O)c1cc2ccccc2o1 [Example 9, N-[1(S)-(Benzofuran-2-carbonyl)-2,2-dimethylpropyl]-3′-cyclopentyl-2′(R)-[(N-formyl-N-hydroxyamino)-methyl]-propionamide] | 6.25 (≈ 2.68 µg/mL) | 0.7 (≈ 0.3 µg/mL) | 
10 | CCCC[C@H](CN(O)C=O)C(=O)N[C@H](C(=O)c1ccc(OC)cc1OC)C(C)(C)C [Example 11, 2(R)-[(N-Formyl-N-hydroxyamino)-methyl]-hexanoic Acid [1′-(2,4-dimethoxy-benzoyl)-2′,2′-dimethylpropyl]-amide] | 25 (≈ 10.6 µg/mL) | 25 (≈ 10.6 µg/mL) | 
11 | CCCC[C@H](CN(O)C=O)C(=O)N[C@H](C(=O)c1ccc(O)cc1)C(C)(C)C [Example 12, 2(R)-[(N-Formyl-N-hydroxyamino)-methyl]-hexanoic Acid [1′(S)-(4-hydroxy-benzoyl)-2′,2′-dimethylpropyl]-amide] | 6.25 (≈ 2.37 µg/mL) | 12 (≈ 4.54 µg/mL) | 
12 | CCCC[C@H](CN(O)C=O)C(=O)N[C@H](C(=O)Cc1ccccn1)C(C)(C)C [Example 15, 2(R)-[(N-Formyl-N-hydroxyamino)-methyl]-hexanoic Acid-(1′(S)-tert-butyl-2′-oxo-3′-pyridin-2-yl-propyl) Amide] |  | 100 (≈ 37.7 µg/mL) | 
13 | CCCC[C@H](CN(O)C=O)C(=O)N[C@H](C(=O)c1ccc(S(C)(=O)=O)cc1)C(C)(C)C [Example 16, 2(R)-[(N-Formyl-N-hydroxyamino)-methyl]-hexanoic Acid [1′(S)-(4-methanesulfonyl-benzoyl)-2′,2′-dimethyl-propyl]amide] | 6.25 (≈ 2.75 µg/mL) | 25 (≈ 11 µg/mL) | 
14 | COc1ccc(C(=O)[C@H](NC(=O)[C@@H](CC2CCCC2)CN(O)C=O)C(C)(C)C)cc1 [Example 17, 3-Cyclopentyl-2(S)-[(N-formyl-N-hydroxyamino)-methyl]-N-[1′(R)-(4-methoxybenzoyl)-2′,2′-dimethylpropyl]propionamide] | 100 (≈ 41.9 µg/mL) | 25 (≈ 10.5 µg/mL) | 
15 | CCCC[C@H](CN(O)C=O)C(=O)N[C@H](C(=O)c1ccco1)C(C)(C)C [Example 18, 2(R)-[(N-Formyl-N-hydroxyamino)-methyl]-hexanoic Acid-(1′(S)-(furan-2-carbonyl)-2′,2′-dimethylpropyl)amide] | 12.5 (≈ 4.41 µg/mL) | 12.5 (≈ 4.41 µg/mL) | 
16 | CCCC[C@H](CN(O)C=O)C(=O)N[C@H](C(=O)c1cccn1C)C(C)(C)C [Example 19, 2(R)-[(N-Formyl-N-hydroxyamino)-methyl]-hexanoic Acid-(2′,2′-dimethyl-1′(S)-(1-methyl-1H-pyrrole-2-carbonyl)-propyl)amide] | 12.5 (≈ 4.57 µg/mL) | 12.5 (≈ 4.57 µg/mL) | 
17 | CCCC[C@H](CN(O)C=O)C(=O)N[C@H](C(=O)c1ccc(N)cc1)C(C)(C)C [Example 20, 2(R)-[(N-Formyl-N-hydroxyamino)-methyl]-hexanoic Acid-(1′(S)-(4-aminobenzoyl)-2′,2′-dimethylpropyl)amide] | 6.25 (≈ 2.36 µg/mL) | 12.5 (≈ 4.72 µg/mL) | 
18 | CCCC[C@H](CN(O)C=O)C(=O)N[C@H](C(=O)c1ccc(NC(=O)C(F)(F)F)cc1)C(C)(C)C [Example 21, 2(R)-[(N-Formyl-N-hydroxyamino)-methyl]-hexanoic Acid-(2′,2′-dimethyl-1′(S)-[4-(2,2,2-trifluoroacetylamino)-benzoyl]-propyl)amide] |  | 6.25 (≈ 2.96 µg/mL) | 6.25 (≈ 2.96 µg/mL)
19 | CCCC[C@H](CN(O)C=O)C(=O)N[C@H](C(=O)c1ccc(NC(C)=O)cc1)C(C)(C)C [Example 22, 2(R)-[(N-Formyl-N-hydroxyamino)-methyl]-hexanoic Acid-(1′(S)-(4-acetylaminobenzoyl)-2′,2′-dimethylpropyl)amide] | 12.5 (≈ 5.24 µg/mL) | 3.1 (≈ 1.3 µg/mL) | 
20 | CCCC[C@H](CN(O)C=O)C(=O)N[C@H](C(=O)c1ccc(NS(C)(=O)=O)cc1)C(C)(C)C [Example 23, 2(R)-[(N-Formyl-N-hydroxyamino)-methyl]-hexanoic Acid-(1′(S)-(4-methanesulfonylaminobenzoyl)-2′,2′-dimethylpropyl)amide] | 50 (≈ 22.8 µg/mL) | 3.1 (≈ 1.41 µg/mL) | 
21 | CCCC[C@H](CN(O)C=O)C(=O)N[C@H](C(=O)c1ccc(N2CCOCC2)cc1)C(C)(C)C [Example 24, 2(R)-[(N-Formyl-N-hydroxyamino)-methyl]-hexanoic Acid-(2′,2′-dimethyl-1′(S)-(4-morpholin-4-ylbenzoyl)-propyl)amide] | 6.25 (≈ 2.8 µg/mL) | 3.1 (≈ 1.39 µg/mL) | 
22 | CCCC[C@H](CN(O)C=O)C(=O)N[C@H](C(=O)c1ccc(N2CCN(Cc3ccccc3)CC2)cc1)C(C)(C)C [Example 25, 2(R)-[(N-Formyl-N-hydroxyamino)-methyl]-hexanoic Acid-(1′(S)-[4-(4-benzylpiperazin-1-yl)-benzoyl]-2′,2′-dimethylpropyl)amide] | 50 (≈ 26.8 µg/mL) | 3.1 (≈ 1.66 µg/mL) | 
23 | CCCC[C@H](CN(O)C=O)C(=O)N[C@H](C(=O)c1ccc(N2CCNCC2)cc1)C(C)(C)C [Example 26, 2(R)-[(N-Formyl-N-hydroxyamino)-methyl]-hexanoic Acid-(2′,2′-dimethyl-1′(S)-(4-piperazin-1-yl-benzoyl)-propyl)amide] | 3.1 (≈ 1.38 µg/mL) | 12.5 (≈ 5.58 µg/mL) | 
24 | CCCC[C@H](CN(O)C=O)C(=O)N[C@H](C(=O)c1ccc(N2CCN(C)CC2)cc1)C(C)(C)C [Example 27, 2(R)-[(N-Formyl-N-hydroxyamino)-methyl]-hexanoic Acid-(2′,2′-dimethyl-1′(S)-[4-(4-methylpiperazin-1-yl)benzoyl]-propyl)amide] | 6.25 (≈ 2.88 µg/mL) | 6.25 (≈ 2.88 µg/mL) | 
25 | CCCC[C@H](CN(O)C=O)C(=O)N[C@H](C(=O)c1ccc(N2CCN(c3ncccn3)CC2)cc1)C(C)(C)C [Example 28, 2(R)-[(N-Formyl-N-hydroxyamino)-methyl]-hexanoic Acid-(2′,2′-dimethyl-1′(S)-[4-(4-pyrimidin-2-yl-piperazin-1-yl)-benzoyl]-propyl)amide] | 12.5 (≈ 6.56 µg/mL) | 1.6 (≈ 0.839 µg/mL) | 
26 | CCCC[C@H](CN(O)C=O)C(=O)N[C@H](C(=O)c1ccc(N2CCN(C3=NCCCN3)CC2)cc1)C(C)(C)C [Example 29, 2(R)-[(N-Formyl-N-hydroxyamino)-methyl]-hexanoic Acid-(2′,2′-dimethyl-1′(S)-{4-[4-(1,4,5,6-tetrahydropyrimidin-2-yl)-piperazin-1-yl]-benzoyl}-propyl)amide] | 50 (≈ 26.4 µg/mL) | 6.25 (≈ 3.3 µg/mL) | 
27 | CCCC[C@H](CN(O)C=O)C(=O)N[C@H](C(=O)c1ccc(N(CCC)CCC)cc1)C(C)(C)C [Example 30, 2(R)-[(N-Formyl-N-hydroxyamino)-methyl]-hexanoic Acid-(1′(S)-(4-dipropylaminobenzoyl)-2′,2′-dimethylpropyl)amide] | 100 (≈ 46.2 µg/mL) | 3.1 (≈ 1.43 µg/mL) | 
